Test results from patent US20260210939A1, “MODIFIED OLFACTORY RECEPTORS” (GIVAUDAN SA, priority 2022, published 2026).
“Also recorded” adds a separate entry of the source.

How the values were obtained:
[1] = test system: library of all human class I OR; test: Screening of the library of all class I OR (n=77, C-terminal domain SEQ ID NO: 741) with carboxylic acids, luciferase induction; assay type: cell-based; details: full library of class I OR
Method: All human class I OR and all key genetic variants of these OR were synthesized with a sequence coding for the identical C-terminal domain […] (SEQ ID NO: 741) in the vector pcDNA3.1(+) to generate a library of all class I OR with an improved C-terminal domain.
Parallel transfection experiments were conducted with all these plasmids (n=77, SEQ ID NO: 760, OR51F1 was excluded due to poor plasmid yield) and cells expressing the different OR were stimulated with one given ligand at a time. In total 10 different carboxylic acids ligands were tested on the full library of class I receptors.

OR52E8 = target: T1, OR52E8 (Homo sapiens, UniProt Q6IFG1); assay type: cell-based
T1 construct: Improved functional expression of modified OR-genes containing the truncated, optimized C-terminus; expressed in transfected cells; host or cells: HEK293T stably expressing human RTP1S(V227I) and RTP2(L220R)
T1 sequence (Q6IFG1 with tags, fused parts or gaps): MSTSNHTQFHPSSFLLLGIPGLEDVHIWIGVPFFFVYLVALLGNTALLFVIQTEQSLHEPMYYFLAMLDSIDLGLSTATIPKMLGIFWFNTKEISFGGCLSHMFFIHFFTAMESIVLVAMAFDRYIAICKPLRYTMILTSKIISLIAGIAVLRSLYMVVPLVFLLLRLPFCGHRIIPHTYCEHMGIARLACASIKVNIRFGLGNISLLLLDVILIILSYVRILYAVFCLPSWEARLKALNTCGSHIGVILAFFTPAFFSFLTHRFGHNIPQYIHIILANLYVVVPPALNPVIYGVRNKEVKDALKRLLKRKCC
From the text: Activation of OR52E8 by odorant acids present in human sweat (Natsch et al. A specific bacterial aminoacylase cleaves odorant precursors secreted in the human axilla. The Journal of biological chemistry 2003; 278(8):5718-5727) was investigated with different variants of the parent receptor sequence. The wild-type variant was not activated by the acids. […] However, using the optimized sequence from Examples 1-5 led to a strong signal upon addition of 3-methyl-3-hydroxy hexanoic acid.
These two improvements were further combined and the combination was tested on OR52A5 and two further class I receptors. […] In the case of OR52A4, 4-ethyloctanoic acid, which is detected at low concentrations by the human nose, is detected with a high luciferase response already at 0.19 μM by the receptor with the C-terminal modification showing very sensitive detection of this carboxylic acid by the modified class I receptor.

OR10J5 [2] = target: T2, OR10J5 (Homo sapiens, UniProt Q8NHC4); assay type: cell-based; details: for EC20%: OR10J5 with SEQ ID NO: 86, relative to positive control 100 μM Mahonial
T2 construct: Improved functional expression of modified OR-genes containing the truncated, optimized C-terminus; expressed in transfected cells; host or cells: HEK293T stably expressing human RTP1S(V227I) and RTP2(L220R)
T2 sequence (Q8NHC4 with tags, fused parts or gaps): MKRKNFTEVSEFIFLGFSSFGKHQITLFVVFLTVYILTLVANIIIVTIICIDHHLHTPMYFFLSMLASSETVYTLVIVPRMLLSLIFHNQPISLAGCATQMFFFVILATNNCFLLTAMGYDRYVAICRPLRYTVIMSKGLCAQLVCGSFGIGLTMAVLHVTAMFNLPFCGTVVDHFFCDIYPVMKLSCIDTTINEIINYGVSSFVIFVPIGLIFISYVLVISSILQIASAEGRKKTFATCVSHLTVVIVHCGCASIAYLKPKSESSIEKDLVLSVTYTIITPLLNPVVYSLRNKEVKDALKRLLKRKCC
Method: Activation of OR10J5 with the C-terminal domain of SEQ ID NO: 86 by (S,E)-10-hydroxy-4,8-dimethyldec-4-enal or (R,E)-10-hydroxy-4,8-dimethyldec-4-enal was measured in a dose-response analysis.
Potency of the two tested OR10J5 ligands is expressed as the EC20% value, which is the concentration that leads to a 20% increase of the luciferase activity relative to the positive control (100 μM, Mahonial; (4E)-9-hydroxy-5,9-dimethyl-4-Decenal). […] Because of the difference in EC20%, a much lower concentration of the (S,E)-isomer is needed to activate the receptor compared to the concentration needed of the (R,E)-isomer. […] This example further illustrates the usefulness of the improved assay to determine the most odor-active isomers.

OR4S2 = target: T3, OR4S2 (Homo sapiens, UniProt Q8NH73, A290K); test: cell-based; assay type: cell-based
T3 construct: Improved functional expression of modified OR-genes containing the truncated, optimized C-terminus; expressed in transfected cells; host or cells: HEK293T stably expressing human RTP1S(V227I) and RTP2(L220R)
T3 sequence (Q8NH73 with tags, fused parts or gaps A290K): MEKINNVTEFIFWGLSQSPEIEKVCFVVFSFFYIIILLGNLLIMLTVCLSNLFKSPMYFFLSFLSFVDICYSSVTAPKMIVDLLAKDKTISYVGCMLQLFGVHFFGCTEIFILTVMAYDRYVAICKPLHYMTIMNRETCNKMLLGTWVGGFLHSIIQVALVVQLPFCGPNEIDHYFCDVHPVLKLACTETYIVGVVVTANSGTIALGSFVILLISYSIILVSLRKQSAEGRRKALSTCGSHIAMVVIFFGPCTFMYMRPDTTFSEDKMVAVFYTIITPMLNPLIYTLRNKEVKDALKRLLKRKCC

OR1C1 = target: T4, OR1C1 (Homo sapiens, UniProt Q15619); assay type: cell-based; details: changed C-term. vs wild-type
T4 construct: Improved functional expression of modified OR-genes containing the truncated, optimized C-terminus; expressed in transfected cells; host or cells: HEK293T stably expressing human RTP1S(V227I) and RTP2(L220R)
T4 sequence (Q15619 with tags, fused parts or gaps): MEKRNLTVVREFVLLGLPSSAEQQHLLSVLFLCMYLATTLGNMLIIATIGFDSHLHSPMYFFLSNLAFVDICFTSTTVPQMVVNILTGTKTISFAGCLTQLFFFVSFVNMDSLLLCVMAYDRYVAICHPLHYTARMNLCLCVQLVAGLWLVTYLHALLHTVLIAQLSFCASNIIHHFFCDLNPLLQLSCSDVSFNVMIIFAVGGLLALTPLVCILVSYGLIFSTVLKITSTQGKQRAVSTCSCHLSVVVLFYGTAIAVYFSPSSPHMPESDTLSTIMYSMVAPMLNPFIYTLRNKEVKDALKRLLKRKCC

OR10J5 [3] = target: T2, OR10J5; assay type: cell-based; details: changed C-term. vs wild-type
OR5A2 = target: T5, OR5A2 (Homo sapiens, UniProt Q8NGI9); test: CRE-luciferase assay, HEK293T cells expressing OR5A2 (wild-type / modified C-terminus); assay type: cell-based
T5 construct: Improved functional expression of modified OR-genes containing the truncated, optimized C-terminus; expressed in transfected cells; host or cells: HEK293T with stably integrated human RTP1S(V227I) and RTP2(L220R)
T5 sequence (Q8NGI9 with tags, fused parts or gaps): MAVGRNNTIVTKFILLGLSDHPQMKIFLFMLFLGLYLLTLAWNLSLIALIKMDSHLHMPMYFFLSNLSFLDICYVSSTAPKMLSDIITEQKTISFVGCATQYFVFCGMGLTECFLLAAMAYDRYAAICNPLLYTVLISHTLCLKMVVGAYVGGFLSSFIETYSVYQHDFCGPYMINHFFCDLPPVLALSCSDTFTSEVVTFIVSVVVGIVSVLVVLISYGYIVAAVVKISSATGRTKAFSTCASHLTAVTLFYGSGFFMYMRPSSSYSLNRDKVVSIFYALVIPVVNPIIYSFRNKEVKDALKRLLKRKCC

OR5AN1 = target: T6, OR5AN1 (Homo sapiens, UniProt Q8NGI8); test: Luciferase assay with chimeric OR5AN1 carrying the C-terminal sequence of OR1N2; assay type: cell-based
T6 construct: Lucy part is a cleavable signal peptide) (N); expressed in transfected cells
T6 sequence (Q8NGI8 with tags, fused parts or gaps limits assumed): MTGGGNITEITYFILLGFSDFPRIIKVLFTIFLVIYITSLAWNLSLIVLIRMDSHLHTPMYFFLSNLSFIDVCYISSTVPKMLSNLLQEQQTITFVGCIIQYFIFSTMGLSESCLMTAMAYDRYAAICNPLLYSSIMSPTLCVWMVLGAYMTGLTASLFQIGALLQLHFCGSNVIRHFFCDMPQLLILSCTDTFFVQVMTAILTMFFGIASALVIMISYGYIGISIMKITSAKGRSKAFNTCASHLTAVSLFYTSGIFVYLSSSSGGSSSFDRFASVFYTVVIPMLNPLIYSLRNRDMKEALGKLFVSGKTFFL
From the text: Similarly, the C-terminal sequence of OR5AN1 was replaced with the C-terminal sequence of the ambrettolide receptor OR1N2.

[4] = test system: library of all human class II OR; test: Screening of the library of all class II OR (n=408, C-terminal domain SEQ ID NO: 221) with single odorants, luciferase induction; assay type: cell-based
Method: All human class II OR and all key genetic variants of these OR were synthesized with a sequence coding for an identical modified C-terminal domain […] (SEQ ID NO: 221) in the vector pcDNA3.1(+) to generate a library of all class II OR with an improved C-terminal domain.
Parallel transfection experiments were conducted with all these plasmids (n=408) and cells expressing the different OR were stimulated with one given ligand at a time, tested at the maximal, clearly non-cytotoxic concentration. In total 26 different ligands were tested on the full library of class II receptors.

[5] = test system: human class II OR identified in the library screening; test: Confirmatory dose-response analysis of library-hit OR with cognate ligand, wild-type vs C-terminal domain SEQ ID NO: 221 (Table 17);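 note: Wild-type receptor sequences expressed from the pcDNA3.1(+) vector and compared with the C-terminally modified receptors in dose-response tests using each receptor's cognate ligand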
Method: Selected ligand—OR pairs were then tested in a confirmatory test with a dose response analysis.
For selected receptors, the wild-type sequence was synthesized and cloned into pcDNA3.1 (+). Dose-response analysis with the cognate ligand was then performed for both the wild-type and the modified sequence.

[6] = test system: library of human class II OR; test: Screening of the class II OR library with a mixture of odorants of one odor description; assay type: cell-based; details: OR with C-terminal domain SEQ ID NO: 221
From the text: Single odorants may trigger activation of multiple OR as shown by the case of Ambrofix in example 18, which activates the specific receptors OR7E24 and OR7A17. On the other hand, multiple odorants may be perceived as and described by certain common odor descriptors due to their common activation of a given set of OR. To trigger a specific odor sensation, thus a specific set of OR may need to be activated. This specific OR set can be identified by mixing several odorants with a given odor description. The mixture is then screened on the full library of OR. The identified set of OR can then be further used to screen for that particular odor description. For example, to identify a typical set of OR for the odor description of “fruity esters”, a mixture of the following compounds was made: Pentanoic acid, 2-methyl ethyl ester; Butanoic acid, 3-methyl-, ethyl ester; Acetic acid, phenoxy-, 2-propenyl ester; Hexanoic acid, ethyl ester; Acetic acid, (3-methylbutoxy)-, 2-propenyl ester; Acetic acid, (cyclohexyloxy)-, 2-propenyl ester; Butanoic acid, 2-methyl-, (3Z/E)-3-hexenyl ester; Cyclohexanecarboxylic acid, ethyl ester and Oxiranecarboxylic acid, 3-phenyl, ethyl ester. This mixture was screened against the full library of OR as described in example 18. […]

In the case of `CCC=C(C)C(=O)O` [2-Methyl-2-pentenoic acid], the “Activated OR and OR variants” value [1] is reported as “No activation observed”.

For `CCCC(C)=CC(=O)O` [3-Methyl-2-hexenoic acid], the “Activated OR and OR variants” value [1] was “strong induction of the OR51B2(C120R, L134F, C209S) variant but not of the wild-type variant of OR51B2”.

For `CCCC(C)(O)CC(=O)O` (stereo not drawn) [3-Methyl-3-Hydroxy-Hexanoic acid, 3-Methyl-3-hydroxyhexanoic acid], the Comments on efficacy (OR52E8) was “No induction”, the Fold-improvement potency (OR52E8; changed C-term. vs wild-type) was >>5 and the Fold-improvement threshold (OR52E8; changed C-term. vs wild-type) was >>5.

In the case of `CC(C)CC(=O)O` [3-Methylbutanoic acid], the “Activated OR and OR variants” value [1] is reported as “No activation observed”.

`C/C(=C\CC[C@@H](C)CCO)CCC=O` [(R,E)-10-hydroxy-4,8-dimethyldec-4-enal] showed an EC20% (OR10J5 [2]) of 24.4 µM.

Molecule `C/C(=C\CC[C@H](C)CCO)CCC=O` [(S,E)-10-hydroxy-4,8-dimethyldec-4-enal] has an EC20% (OR10J5 [2]) of 10.1 µM.

In the case of `c1ccc2scnc2c1` [Benzothiazole], the Comments on efficacy (OR4S2) is reported as 2-fold lower, the Fold-improvement potency (OR4S2; changed C-term. vs wild-type) is reported as 1.3 and the Fold-improvement threshold (OR4S2; changed C-term. vs wild-type) is reported as 2.4. The EC50 (OR4S2; wild-type) was 137 µM.

In the case of `C=CC(C)(O)CCC=C(C)C` (stereo not drawn) [Linalool], the Fold-improvement potency (OR1C1) is reported as 1.9 and the Fold-improvement threshold (OR1C1) is reported as 2.1.

With `C/C(=C\CCC=O)CCCC(C)(C)O` [Mahonial, (4E)-9-hydroxy-5,9-dimethyl-4-Decenal] the Fold-improvement potency (OR10J5 [3]) was 2.3.

With `C[C@@H]1CCCCCCCCCCCCC(=O)C1` [Muscone, reference compound] the “concentration at which induction starts” value (OR5A2; OR5A2 with modified C-terminus) was 0.03 µM, the “concentration at which activation occurs” value (OR5A2; modified OR5A2, SEQ ID NO: 86) was 1 µM and the “functional response of chimeric OR5AN1” value (OR5AN1) was “not showing any functional response”. For the same molecule, the “Activated OR and OR variants” value ([4]; ligand at maximal non-cytotoxic concentration, full class II library) was “OR5AN1, OR5A2”.

`CC(=O)c1c(C)c([N+](=O)[O-])c(C(C)(C)C)c([N+](=O)[O-])c1C` [Musk ketone] was tested, and the “functional response of chimeric OR5AN1” value (OR5AN1) was “not showing any functional response”.

`Cc1cc(CC(C)C)ccc1CCC=O` [Nympheal, 3-(4-isobutyl-2-methylphenyl)propanal] was tested, and the Fold-improvement potency (OR10J5 [3]) was >>6, the Fold-improvement threshold (OR10J5 [3]) was >>6 and the Comments on efficacy (OR10J5 [2]) was “Only 1.8-fold”.

`C[C@H]1CC[C@@]2(O)C(C)(C)[C@@H]3CC[C@@]2(C)[C@H]1C3` [Patchoulol] was tested, and the “Detection threshold; concentration for 2-fold induction, changed C-term.” value ([5]; OR14J1, modified C-terminus SEQ ID NO: 221 (SEQ ID NO: 738)) was 0.45 µM, the Fold improvement efficacy ([5]; OR14J1, modified C-terminus SEQ ID NO: 221 vs wild-type, maximal induction) was 33.4 fold and the EC50 ([5]; read-out: Potency, EC50 changed C-term, OR14J1, modified C-terminus SEQ ID NO: 221 (SEQ ID NO: 738)) was 2.2 µM. For the same molecule, the “activity of the wild-type OR” value ([5]; wild-type sequence, cognate ligand) was “inactive” and the “induction in the library screening” value ([4]; 50 μM Patchoulol) was “strong induction of OR14J1; also recorded: weak induction of OR11A1 and OR7A17”.

B1: OR2L5: class II OR with C-terminal domain SEQ ID NO: 221 (protein, UniProt Q8NG80 1-312, looked up)
Olfactory receptor 2L5: MENYNQTSTDFILLGLFPPSKIGLFLFILFVLIFLMALIGNLSMILLIFLDTHLHTPMYFLLSQLSLIDLNYISTIVPKMASDFLYGNKSISFIGCGIQSFFFMTFAGAEALLLTSMAYDRYVAICFPLHYPIRMSKRMYVLMITGSWMIGSINSCAHTVYAFRIPYCKSRAINHFFCDVPAMLTLACTDTWVYEYTVFLSSTIFLVFPFTGIACSYGWVLLAVYRMHSAEGRKKAYSTCSTHLTVVTFYYAPFAYTYLCPRSLRSLTEDKVLAVFYTILTPMLNPIIYSLRNKEVMGALTRVIQNIFSVKM
In the case of B1, the “Fold luciferase induction (20 ppm fruity ester mix)” value [6] is reported as 8.9.

B2: OR11G2: class II OR with C-terminal domain SEQ ID NO: 221 (protein, UniProt Q8NGC1 1-345, looked up)
Olfactory receptor 11G2: MHFLSQNDLNINLIPHLCLHRHSVIAGAFTIHRHMKIFNSPSNSSTFTGFILLGFPCPREGQILLFVLFTVVYLLTLMGNGSIICAVHWDQRLHAPMYILLANFSFLEICYVTSTVPSMLANFLSDTKIISFSGCFLQFYFFFSLGSTECFFLAVMAFDRYLAICRPLRYPTIMTRRLCTNLVVNCWVLGFIWFLIPIVNISQMSFCGSRIIDHFLCDPAPLLTLTCKKGPVIELVFSVLSPLPVFMLFLFIVGSYALVVRAVLRVPSAAGRRKAFSTCGSHLAVVSLFYGSVLVMYGSPPSKNEAGKQKTVTLFYSVVTPLLNPVIYSLRNKDMRKALKKFWGT
B2 was tested, and the “Fold luciferase induction (20 ppm fruity ester mix)” value [6] was 7.2.
